Results published in paper PMC10135315 (Antioxidants, 2023).
Where two headings read alike, the source gives them in different places.

Columns and labels:
[1] = biological target: T1, xanthine oxidase from bovine milk (Bos taurus, UniProt P80457); assay: Kinetic measurements of XO activity (Michaelis-Menten / Lineweaver-Burk); assay type: biochemical; conditions: for Ki / Vmax in presence of inhibitor: 4-30 µM xanthine; for Ki: from increase of KM for xanthine, competitive model; for Mechanism of XO inhibition: kinetic analysis; for Vmax in presence of inhibitor: pooled over the tested inhibitor concentrations
T1 construct: xanthine oxidase from bovine milk (0.5 U/mg); purchased Sigma-Aldrich (St. Louis, MO, USA); host or cells: bovine milk (natural source)
Description: The inhibition power of the various compounds and their mechanism of inhibition were assessed through kinetic measurements of the XO activity. To this aim, each assay was carried out in a 500 µL final volume reaction mixture, containing 4–30 µM xanthine dissolved in buffer A in the absence or presence of a fixed concentration of the various inhibitors. The reaction started with the addition of XO and was followed as indicated in steady-state assays. The kinetic parameters of the reaction, KM for the substrate and Vmax of the reaction, were derived either from the direct non-linear interpolation in the Michaelis–Menten hyperbolic equation of the initial rate of uric acid formation vs. the xanthine concentration or from a double reciprocal transformation of the kinetic data in Lineweaver–Burk plots. […] Therefore, the inhibition constant (Ki) was obtained from the increase of KM for xanthine in the presence of the inhibitor, according to the KM′ = KM•{1 + ([I]/Ki)} equation, where KM′ represents the KM for xanthine measured in the presence of the concentration [I] of the inhibitor.

[2] = biological target: T1, xanthine oxidase from bovine milk; assay: Steady-state determination of XO activity (uric acid formation at 295 nm), dose-dependent inhibition; assay type: biochemical; conditions: 75 µM xanthine; for IC50: steady-state determination, 25 °C, pH 7.8
Description: The activity of XO was measured spectrophotometrically at 25 °C by monitoring the increase of absorbance at 295 nm due to the formation of uric acid, using a Cary 100 UV-Vis Spectrophotometer (Agilent Technologies, Milan, Italy), essentially, as previously reported. […] The DMSO concentration carried over by the inhibitor was 0.5% (v/v); an identical concentration of DMSO was used in the absence of inhibitor. The reaction started with the addition of XO and was followed kinetically up to 30 s by continuously monitoring the absorbance. The initial rate of uric acid formation was derived from the linear part of the kinetics and expressed as ΔE/min. The effect of each inhibitor was evaluated through the ratio of residual XO activity measured in the presence of each inhibitor over that measured in the absence of inhibitor.

[3] = biological target: T1, xanthine oxidase from bovine milk; assay: Reversibility of XO inhibition by dilution method; assay type: biochemical
Description: The reversibility of the inhibition mechanism was evaluated through a dilution method of a solution containing XO and inhibitor. To this aim, a sample of XO was incubated at 25 °C in the absence or presence of a concentrated solution of inhibitor. Aliquots of these mixtures were withdrawn at different times and 4-fold diluted through the addition of a solution containing the substrate xanthine. The samples were then immediately assayed for XO activity as previously indicated for the steady-state determinations.

XO = conditions: cited from earlier work
[4] = known XO inhibitors co-crystallised into XO, no reference given

T1 sequence (P80457 whole entry): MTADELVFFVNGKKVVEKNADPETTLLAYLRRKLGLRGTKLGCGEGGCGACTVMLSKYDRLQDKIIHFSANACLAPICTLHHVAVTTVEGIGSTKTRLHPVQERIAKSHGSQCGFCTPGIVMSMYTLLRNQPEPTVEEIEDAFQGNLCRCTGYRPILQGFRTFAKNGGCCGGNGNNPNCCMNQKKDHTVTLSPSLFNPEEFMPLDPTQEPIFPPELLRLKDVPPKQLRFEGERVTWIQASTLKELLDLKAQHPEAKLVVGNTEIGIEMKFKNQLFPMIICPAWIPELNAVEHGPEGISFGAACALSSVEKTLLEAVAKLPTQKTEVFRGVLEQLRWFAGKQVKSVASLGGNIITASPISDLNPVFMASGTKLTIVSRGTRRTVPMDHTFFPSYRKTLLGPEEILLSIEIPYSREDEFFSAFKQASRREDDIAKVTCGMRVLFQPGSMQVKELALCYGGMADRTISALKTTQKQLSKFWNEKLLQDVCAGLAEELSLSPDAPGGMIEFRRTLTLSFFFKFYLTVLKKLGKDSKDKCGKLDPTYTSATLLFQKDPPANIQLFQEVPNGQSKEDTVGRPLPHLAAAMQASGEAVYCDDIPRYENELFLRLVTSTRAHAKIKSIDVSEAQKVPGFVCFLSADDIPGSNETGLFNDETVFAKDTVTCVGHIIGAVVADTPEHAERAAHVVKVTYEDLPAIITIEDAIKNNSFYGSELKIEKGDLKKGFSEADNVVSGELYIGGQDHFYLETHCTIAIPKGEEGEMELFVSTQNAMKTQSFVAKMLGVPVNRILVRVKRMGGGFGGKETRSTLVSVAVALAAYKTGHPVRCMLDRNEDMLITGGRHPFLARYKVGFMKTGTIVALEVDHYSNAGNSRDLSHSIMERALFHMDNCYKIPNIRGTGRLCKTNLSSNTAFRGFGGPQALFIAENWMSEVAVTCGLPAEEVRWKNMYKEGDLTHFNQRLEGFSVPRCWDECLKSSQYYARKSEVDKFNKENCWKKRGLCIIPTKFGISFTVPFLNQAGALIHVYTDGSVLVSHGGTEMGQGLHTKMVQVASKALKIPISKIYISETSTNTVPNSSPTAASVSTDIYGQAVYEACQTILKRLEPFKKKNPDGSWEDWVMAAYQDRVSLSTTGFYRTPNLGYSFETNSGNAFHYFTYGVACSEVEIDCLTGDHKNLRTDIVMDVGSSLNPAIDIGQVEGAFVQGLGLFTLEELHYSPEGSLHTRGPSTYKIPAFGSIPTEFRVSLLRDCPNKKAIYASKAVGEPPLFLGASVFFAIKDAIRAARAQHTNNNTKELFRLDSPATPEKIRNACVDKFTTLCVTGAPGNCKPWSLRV

Structure (SMILES): O=C(O)c1cc2ccc(Br)cc2[nH]1 [ALS-1]
- Ki [1]: 41 ± 14 µM
- Mechanism of XO inhibition [1]: competitive inhibitors
- Vmax in presence of inhibitor [1]: 0.087 ± 0.004 (n = 2) ΔE/min
- Inhibition profile of XO activity [2]: dose-dependent inhibition
- IC50 [2]: 82 µM

Structure (SMILES): O=C(O)c1cc(-c2cccc(F)c2)[nH]n1 [ALS-8]
- Ki [1]: 4.5 ± 1.5 µM
- Mechanism of XO inhibition [1]: competitive inhibitors
- Vmax in presence of inhibitor [1]: 0.093 ± 0.007 (n = 4) ΔE/min
- Inhibition profile of XO activity [2]: dose-dependent inhibition
- IC50 [2]: 30 µM

Structure (SMILES): Brc1cncc(-c2nn[nH]n2)c1 [ALS-15]
- Ki [1]: 23 ± 9 µM
- Mechanism of XO inhibition [1]: competitive inhibitors
- Vmax in presence of inhibitor [1]: 0.086 ± 0.003 (n = 4) ΔE/min
- Inhibition profile of XO activity [2]: dose-dependent inhibition
- IC50 [2]: 64 µM

Structure (SMILES): O=C(O)c1cc(-c2ccc(Cl)cc2)ncn1 [ALS-28]
- Ki [1]: 2.7 ± 1.5 µM
- Mechanism of XO inhibition [1]: competitive inhibitors
- Vmax in presence of inhibitor [1]: 0.113 ± 0.007 (n = 4) ΔE/min
- Time-dependent reduction of XO activity ([3]; 60 µM inhibitor, 25 °C, up to 30 min): no time-dependent reduction of XO activity
- Reversibility of inhibition ([3]; preincubation with XO at 25 °C up to 30 min, then 4-fold dilution (ALS-28: 60 µM to 15 µM)): reversible inhibitor
- Inhibition profile of XO activity [2]: dose-dependent inhibition
- IC50 [2]: 18 µM

Structure (SMILES): N#Cc1cc(-c2n[nH]c(-c3ccncc3)n2)ccn1 [FYX-051, topiroxostat]
- Inhibition mechanism (XO): hybrid-type inhibition mechanism

Structure (SMILES): Cc1nc(-c2ccc(OCC(C)C)c(C#N)c2)sc1C(=O)O [TEI-6720, febuxostat]
- Inhibition mechanism (XO): mixed-type inhibition

Structure (SMILES): O=c1c(O)c(-c2ccc(O)c(O)c2)oc2cc(O)cc(O)c12 [quercetin]
- Inhibition mechanism (XO; [4]): competitive

Structure (SMILES): O=C(O)c1ccccc1O [salicylic acid]
- Inhibition mechanism (XO; [4]): competitive inhibitor
